# In patent publication US20260055078A1, “COMPOUND FUNCTIONING AS SMARCA2/4 INHIBITOR AND USE THEREOF” (Gan & Lee Pharmaceuticals Co., Ltd., priority 2022, published 2026):
# pIC50: −log10 of the molar value.
# Experiments:
# MCF-7 cell line = assay: Cell proliferation assay (CCK-8), MCF-7; type: cell-based; conditions: Homo sapiens, MCF7, 168 h; Table 1; 7 days incubation with compound; read-out: MCF-7 cell line CCK8 IC50
# Method: (§1) The antiproliferative activity of the compounds on the cells was determined by CCK-8 kit (C0039, Biotronik). A549 (CCL-185™, ATCC) and MCF-7 (HTB-22™, ATCC) cells were incubated with F-12K medium (30-2004, ATCC) containing 10% FBS (10099141C, Gibco) and DMEM medium (11995065, Gibco) containing 10% FBS, respectively, at 37° C. with 5% CO2 until entering the logarithmic growth phase. In 96-well plates, 2800 cells (A549) or 1000 cells (MCF-7) was added in a volume of 100 μL, the blank control group was 100 μL of medium. After one day of incubation at 37° C., 5% CO2, 100 μL of compounds of different concentrations were added (final concentration of […], 3-fold dilution, a total of 9 concentrations), and the control group was added to 100 μL of medium and continued to be incubation for 4 days (A549) or 7 days (MCF-7). According to the manufacturer's instructions, 20 μL of CCK-8 solution was added. Finally, the absorbance at 450 nm was measured using a microplate reader (SPARK m1000 pro, TECAN) after incubation at 37° C. for 2 h (A549) or 4 h (MCF-7).
# (§2) The inhibition rate of the compounds on the cells at different concentrations was calculated based on the OD values of each well, and the inhibition rate data were plotted in GraphPad Prism 8.0 software to calculate the IC50 values.
# SMARCA4^BD protein = target: T1, SMARCA4^BD protein (Homo sapiens, UniProt P51532); assay: Fluorescence polarization (FP) detection, SMARCA4 bromodomain; type: binding; conditions: probe 10 nM, SMARCA4^BD protein 120 nM, 2 h room temperature
# T1 construct: His6 (leader mhhhhhhgslvpr\gs, with thrombin-type site lvpr\gs) (N); made in house
# T1 sequence (P51532 1448-1575): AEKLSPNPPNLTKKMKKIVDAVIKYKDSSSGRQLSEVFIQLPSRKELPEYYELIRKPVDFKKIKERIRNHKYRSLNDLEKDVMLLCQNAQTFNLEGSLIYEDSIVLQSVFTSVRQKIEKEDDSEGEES
# Method: (§3) • 1. Perform a fluorescence polarization assay on with the target protein, which has been expressed and purified from prokaryotic cells to a purity of >90%.
# (§4) • 2. The fluorescence polarization assay was conducted in a 384-well plate (3820, Corning) protected from light, with an excitation wavelength of 485 nm and an emission wavelength of 520 nm. Fluorescent probe was used in the experiment, and the buffer solution was 25 mM Bis-Tris, 0.01% Triton X-100, at pH 7.5. The final concentration of DMSO after the addition of the compound was less than 1%. The final detection volume per well was 125 μl, containing 50 μl of the fluorescent probe (final concentration 10 nM), 50 μl of SMARCA2^BD protein (final concentration 50 nM) or 50 μl of SMARCA4^BD protein (final concentration 120 nM), and 25 μl of the compound at various concentrations (final concentration ranging from 0 to 100 µM with a 3-fold dilution, a total of 11 concentrations). A control group (probe+protein), a probe control group (probe only), and a blank control group (buffer only) were set up. The fluorescence values were read by an ELISA reader r (SPARK m1000 pro, TECAN) after incubation for 2 h at room temperature on a shaker. The polarization value mP is calculated based on the fluorescence values in parallel and perpendicular directions of each well, and then the inhibition rate is calculated based on the mP value:
# (§5) The inhibition rate data was plotted in GraphPad Prism 8.0 software and the IC50 value was calculated.
# A549 cell line = assay: Cell proliferation assay (CCK-8), A549; type: cell-based; conditions: Homo sapiens, A549, 96 h; Table 1; 4 days incubation with compound; read-out: A549 cell line CCK8 IC50
# Method: as §1, §2
# SMARCA2^BD protein = target: T2, SMARCA2^BD protein (Homo sapiens, UniProt P51531, I1395R); assay: Fluorescence polarization (FP) detection, SMARCA2 bromodomain; type: binding; conditions: probe 10 nM, SMARCA2^BD protein 50 nM, 2 h room temperature
# T2 construct: His-SMARCA2^BD(S1377-Q1486); His6 (leader mhhhhhhgslvpr\gs, with thrombin-type site lvpr\gs) (N); made in house
# T2 sequence (P51531 1377-1486 isoform P51531-2 I1395R): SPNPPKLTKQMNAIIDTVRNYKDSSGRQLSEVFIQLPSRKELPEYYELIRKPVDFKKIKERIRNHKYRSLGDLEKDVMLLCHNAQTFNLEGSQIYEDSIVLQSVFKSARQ
# Method: as §3, §4, §5
# Hela cell line = assay: Cell proliferation assay (CCK-8), Hela; type: cell-based; conditions: Homo sapiens, 72 h, Table 2, 3 days incubation with compound, read-out: Hela cell line CCK8 IC50
# Method: (§6) The antiproliferative activity of the compounds on the cells was determined by CCK-8 kit (C0039, Biotronik). Hela (CCL-2™, ATCC) and SW1573 (CRL-2170™, ATCC) cells were incubated with DMEM medium (11995065, Gibco) containing 10% FBS (10099141C, Gibco) at 37° C. with 5% CO2 until entering the logarithmic growth phase. In 96-well plates, 2500 cells (Hela) or 800 cells (SW1573) were added in a volume of 100 μL, the blank control group was 100 μL of medium, and after one day of incubation at 37° C., 5% CO2, 100 μL of compounds of different concentrations were added (final concentration of […], 3-fold dilution, a total of 9 concentrations), and the control group was added to 100 μL of medium and continued to incubate for 3 days (Hela) or 7 days (SW1573). Then 20 μL of CCK-8 solution were added. Finally, the absorbance at 450 nm was measured using a microplate reader (SPARK m1000 pro, TECAN) after incubation at 37° C. for 1.5 h (Hela) or 2.5 h (SW1573).
# as §2
# SW1573 cell line = assay: Cell proliferation assay (CCK-8), SW1573; type: cell-based; conditions: Homo sapiens, SW1573, 168 h; Table 2; 7 days incubation with compound; read-out: SW1573 cell line CCK8 IC50
# Method: as §6, §2
# 148 cancer cells = conditions: background, literature; cited from earlier work
# [1] = aryl ketone linked to tertiary amines; limited intracellular exposure time; literature; cited from earlier work
pIC50 (MCF-7 cell line),pIC50 (SMARCA4^BD protein; Table 1),pIC50 (A549 cell line),pIC50 (SMARCA2^BD protein; Table 1),pIC50 (Hela cell line),pIC50 (SW1573 cell line),pIC50 (SMARCA4^BD protein; Table 2),pIC50 (SMARCA2^BD protein; Table 2),SMILES,inhibitory activity in 148 cancer cells (148 cancer cells),chemical stability [1]
4.92,6.52,4.60,6.72,,,,,"Nc1nnc(-c2ccccc2O)cc1C#CC1CCNCC1 [Compound 1c, 2-(6-amino-5-(piperidin-4-ylethynyl)pyridazin-3-yl)phenol]",,
5.33,6.55,5.14,6.48,,,,,"Nc1nnc(-c2ccccc2O)cc1C#CC1CCNC1 (stereo not shown) [Compound 2c, 2-(6-Amino-5-(pyrrolidin-3-ylethynyl)pyridazin-3-yl)phenol]",,
4.51,6.24,4.14,6.32,,,,,"Nc1nnc(-c2ccccc2O)cc1C#CC1CNC1 [Compound 3c, 2-(6-amino-5-(azetidinyl-3-ethylenylidene)pyridazin-3-yl)phenol]",,
5.12,6.89,4.81,6.89,,,,,"Nc1nnc(-c2ccccc2O)cc1C#CC1CCC2(CC1)CNC2 [Compound 5c, 2-(5-((2-Azaspiro[3.5]nonan-7-yl)ethynyl)-6-aminopyridazin-3-yl)phenol]",,
5.43,6.82,4.87,6.70,,,,,"Nc1nnc(-c2ccccc2O)cc1C#CC1CCC2(CCNCC2)CC1 [Compound 6c, 2-(5-((3-Azaspiro[5.5]undecan-9-yl)ethynyl)-6-aminopyridazin-3-yl)phenol]",,
5.15,6.85,4.83,6.72,,,,,"Nc1nnc(-c2ccccc2O)cc1C#CC1CC2(CCNCC2)C1 [Compound 10c, 2-(5-((7-Azaspiro[3.5]nonan-2-yl)ethynyl)-6-aminopyridazin-3-yl)phenol]",,
,,,,4.60,4.88,6.68,6.72,"COC1(C#Cc2cc(-c3ccccc3O)nnc2N)CCC(N2CCCC2)CC1 (stereo not shown) [Compound 15, 2-(6-amino-5-((1-methoxy-4-(pyrrolidin-1-yl)cyclohexyl)ethynyl)pyridazin-3-yl)phenol]",,
,,,,4.18,4.00,< 5.43,5.96,"COc1ccc(C#Cc2cc(-c3ccccc3O)nnc2N)cc1 [Compound 17, 2-(6-amino-5-((4-methoxyphenyl)ethynyl)pyridazin-3-yl)phenol]",,
,,,,4.41,4.04,6.92,6.77,"CN(C)[C@H]1[C@@H]2CN(c3cc(-c4ccccc4O)nnc3N)C[C@@H]21 [Compound 20, 2-(6-amino-5-((1R,5S,6s)-6-(dimethylamino)-3-azabicyclo[3.1.0]hex-3-yl)pyridazin-3-yl)phenol]",,
,,,,4.16,< 4.00,6.60,6.89,"CC(=O)N[C@H]1[C@@H]2CN(c3cc(-c4ccccc4O)nnc3N)C[C@@H]21 [Compound 21, N-((1R,5S,6s)-3-(3-amino-6-(2-hydroxyphenyl)pyridazin-4-yl)-3-azabicyclo[3.1.0]hexan-6-yl)acetamide]",,
4.13,6.28,< 4.00,6.15,< 4.00,< 4.00,,,"CC(=O)N1CCN(c2cc(-c3ccccc3O)nnc2N)CC1 [Control compound, reference compound]",,
,,,,,,,,O=C(/C=C/N1C[C@H]2C[C@@H]1CN2c1ccccn1)c1ccccc1O [PFI-3],did not show significant inhibitory activity,poor chemical stability

SMILES,pIC50 (MCF-7 cell line),pIC50 (SMARCA4^BD protein; Table 1),pIC50 (A549 cell line),pIC50 (SMARCA2^BD protein; Table 1),pIC50 (Hela cell line),pIC50 (SW1573 cell line),pIC50 (SMARCA4^BD protein; Table 2),pIC50 (SMARCA2^BD protein; Table 2),inhibitory activity in 148 cancer cells (148 cancer cells),chemical stability [1]
"Nc1nnc(-c2ccccc2O)cc1C#CC1CC2(CNC2)C1 [Compound 4c, 2-(5-((2-Azaspiro[3.3]hept-6-yl)ethynyl)-6-aminopyridazin-3-yl)phenol]",4.91,6.82,4.80,6.72,,,,,,
